From ChEMBL document CHEMBL3217749, “Design and synthesis of novel pyranone-based insulin sensitizers exhibiting in vivo hepatoprotective activity” (2013) come the findings set out here.

Test [1] relates to 3T3-L1. In words: Inhibition of chronic insulin-stimulated insulin resistance in differentiated mouse 3T3L1 cells assessed as 2-deoxy-D-[3H]-glucose uptake after 24 hrs by scintillation counting analysis. It is filed as functional, cell-based.
In test [2] the test system is 3T3-L1. In words: Induction of insulin-stimulated 2-deoxy-D-[3H]-glucose uptake in differentiated mouse 3T3L1 cells at 10 uM after 24 hrs by scintillation counting analysis. It is filed as functional, cell-based.
Test [3] is described as follows: Upregulation of FAS protein expression in differentiated mouse 3T3L1 cells after 7 days by western blot analysis. Type of test: functional, cell-based. The note with it: 3T3-L1.
Test [4] can be described thus: Upregulation of aP2 protein expression in differentiated mouse 3T3L1 cells after 7 days by western blot analysis. Type of test: functional, cell-based. The note with it: 3T3-L1.
The test system of test [5] is 3T3-L1. In words: Induction of adipogenesis in mouse 3T3L1 cells assessed as lipid accumulation at 10 uM on day 8 by oil Red O staining. Type of test: functional, cell-based.
The test system of test [6] is Mus musculus. In words: Hepatoprotective activity against thioacetamide-induced liver toxicity in Swiss albino mouse assessed as protection against histological damage at 20 mg/kg administered for 7 days started 1 day after thioacetamide challenge measured on day 8 by hematoxylin-eosin staining. It is filed as functional, organism-based. More on the design: dose 20 mg/kg.

Test [7] deals with Mus musculus. In words: Hepatoprotective activity against thioacetamide-induced liver toxicity in Swiss albino mouse assessed as protection in serum total bilirubin activity at 20 mg/kg administered for 7 days started 1 day after thioacetamide challenge measured on day 8. It is filed as functional.
For test [8], the system named is Mus musculus. In words: Hepatoprotective activity against thioacetamide-induced liver toxicity in Swiss albino mouse assessed as protection in serum ALP activity at 20 mg/kg administered for 7 days started 1 day after thioacetamide challenge measured on day 8. It is filed as functional.
In test [9] the test system is Mus musculus. In words: Hepatoprotective activity against thioacetamide-induced liver toxicity in Swiss albino mouse assessed as protection in serum AST activity at 20 mg/kg administered for 7 days started 1 day after thioacetamide challenge measured on day 8. Type of test: functional.
The test system of test [10] is Mus musculus. In words: Hepatoprotective activity against thioacetamide-induced liver toxicity in Swiss albino mouse assessed as protection in serum ALT activity at 20 mg/kg administered for 7 days started 1 day after thioacetamide challenge measured on day 8. Type of test: functional.
The subject of test [11] is Mus musculus. In words: Hepatoprotective activity against thioacetamide-induced liver toxicity in Swiss albino mouse assessed as protection in serum AST activity at 20 mg/kg, po administered for 7 days started 1 day after thioacetamide challenge measured on day 8. It is filed as functional, organism-based. More on the design: dose 20 mg/kg.
In test [12] the test system is Mus musculus. In words: Hepatoprotective activity against thioacetamide-induced liver toxicity in Swiss albino mouse assessed as protection in serum ALT activity at 20 mg/kg, po administered for 7 days started 1 day after thioacetamide challenge measured on day 8. Type of test: functional, organism-based. More on the design: dose 20 mg/kg.
Test [13] concerns Mus musculus. In words: Hepatoprotective activity against thioacetamide-induced liver toxicity in Swiss albino mouse assessed as protection against histological damage at 20 mg/kg, po administered for 7 days started 1 day after thioacetamide challenge measured on day 8 by hematoxylin-eosin staining. Type of test: functional, organism-based. More on the design: dose 20 mg/kg.
Test [14] deals with Mus musculus. In words: Hepatoprotective activity against thioacetamide-induced liver toxicity in Swiss albino mouse assessed as protection in serum total bilirubin activity at 20 mg/kg, po administered for 7 days started 1 day after thioacetamide challenge measured on day 8. Type of test: functional, organism-based. More on the design: dose 20 mg/kg.
Test [15] concerns Mus musculus. In words: Hepatoprotective activity against thioacetamide-induced liver toxicity in Swiss albino mouse assessed as protection in serum ALP activity at 20 mg/kg, po administered for 7 days started 1 day after thioacetamide challenge measured on day 8. It is filed as functional, organism-based. More on the design: dose 20 mg/kg.

Calls of active or inactive are those of the source. The rule behind the calls is not given here.

For the compound `COc1ccc(-c2cc(N(C)CCOC(=O)Cc3ccc(O)cc3)c(C#N)c(=O)o2)cc1`, the “Inhibition activity (active/not active)” value in the test on 3T3-L1 [1] was “inactive”. The outcome (in the test on 3T3-L1 [2]; in test [3]; in test [4]; in the test with 3T3-L1 [5]; in the test on Mus musculus [6]) was Active. Further, the Activity in the test on Mus musculus [7] is listed as 100%; in the test with Mus musculus [8], 100%; with Mus musculus [9], 60%; in the test on Mus musculus [10] it was 92%.

For the compound `CN(CCOc1ccc(CC2SC(=O)NC2=O)cc1)c1ccccn1` (centres undefined), the “Inhibition activity (active/not active)” value with 3T3-L1 [1] was “Active”. Moreover, the outcome (with 3T3-L1 [2]; in test [3]; in test [4]) was Active.

With `COc1ccc(-c2cc(N(C)CCN3C(=O)SC(Cc4cccc(O)c4)C3=O)c(C#N)c(=O)o2)cc1` (centres undefined), in the test on 3T3-L1 [1], the “Inhibition activity (active/not active)” value is “inactive”. Further, the outcome (in the test with 3T3-L1 [2]; in [3]; in test [4]; in the test on 3T3-L1 [5]; with Mus musculus [6]) was Active. For the same compound, the Activity with Mus musculus [7] is recorded as 100%; with Mus musculus [8], 100%; with Mus musculus [9] it was 75%; in the test with Mus musculus [10], 89%.

Consider `CN(CCBr)c1cc(-c2ccc(Cl)cc2)oc(=O)c1C#N`, for which the “Inhibition activity (active/not active)” value in the test with 3T3-L1 [1] is “Active”. Further, the result (in the test with 3T3-L1 [2]; in test [3]; in the test with 3T3-L1 [5]; in the test with Mus musculus [6]) was Active. Besides, the outcome in test [4] was inactive. Further, the Activity in the test with Mus musculus [7] is listed as 100%; in the test with Mus musculus [8], 100%; in the test on Mus musculus [9], 87%; with Mus musculus [10], 100%.

In the case of SILYMARIN, the Activity was 95% in the test on Mus musculus [11], 93% in the test on Mus musculus [12], 100% in the test with Mus musculus [14] and 100% in the test on Mus musculus [15]. The result in the test on Mus musculus [13] was Active.
